# Reference: patent publication US9695155B2, “Herbicidal substituted pyrimidinyloxy benzene compounds” (E. I. DU PONT DE NEMOURS AND COMPANY, priority 2013, dated 2017)
# What was measured:
# Test in all cases: Test C preemergence
# yellow nutsedge = type: in vivo, Cyperus esculentus; conditions: for Nutsedge, Yellow plant response rating: preemergence
# Summary of the method: (§1)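 Sown in loam/sand → sprayed pre-emergence; or grown to 1–4 leaves in peat mix → sprayed post-emergence. Same solvent/surfactant formulation both ways. Greenhouse 13–15 d. Score 0–100 visual.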
# pigweed = type: in vivo, Amaranthus retroflexus; conditions: for Pigweed plant response rating: preemergence
# Summary of the method: as §1
# ragweed = type: in vivo, Ambrosia elatior; conditions: for Ragweed plant response rating: preemergence
# Summary of the method: as §1
# galium = type: in vivo, Galium aparine; conditions: for Galium plant response rating: preemergence
# Summary of the method: as §1
# barnyardgrass = type: in vivo, Echinochloa crus-galli; conditions: for Barnyardgrass plant response rating: preemergence
# Summary of the method: as §1
# wheat, winter = type: in vivo, Triticum aestivum; conditions: for Wheat plant response rating: preemergence
# Summary of the method: as §1
# soybean = type: in vivo, Glycine max; conditions: for Soybean plant response rating: preemergence
# Summary of the method: as §1
# oilseed rape = type: in vivo, Brassica napus; conditions: for Oilseed Rape plant response rating: preemergence
# Summary of the method: as §1
# waterhemp = type: in vivo, Amaranthus rudis; conditions: for Waterhemp plant response rating: preemergence
# Summary of the method: as §1
# lambsquarters = type: in vivo, Chenopodium album; conditions: for Lambsquarters plant response rating: preemergence
# Summary of the method: as §1
# johnsongrass = type: in vivo, Sorghum halepense; conditions: for Johnsongrass plant response rating: preemergence
# Summary of the method: as §1
# giant foxtail = type: in vivo, Setaria faberii; conditions: for Foxtail, Giant plant response rating: preemergence
# Summary of the method: as §1
# blackgrass = type: in vivo, Alopecurus myosuroides; conditions: for Blackgrass plant response rating: preemergence
# Summary of the method: as §1
# velvetleaf = type: in vivo, Abutilon theophrasti; conditions: for Velvetleaf plant response rating: preemergence
# Summary of the method: as §1
# [1] = 16 g ai/ha, scale 0 to 100 (0 no effect, 100 complete control)
# [2] = 62 g ai/ha, scale 0 (no effect) to 100 (complete control)
# [3] = 125 g ai/ha, scale 0 (no effect) to 100 (complete control)
# [4] = Preemergence, 31 g ai/ha, scale 0 to 100, 0 no effect, 100 complete control
structure (smiles),measurement,setting,value
Fc1cnc(Oc2cccc(C(F)F)c2-n2cc(Cl)cn2)nc1 [Compound 94],"Nutsedge, Yellow plant response rating",yellow nutsedge; [1],0
same,"Nutsedge, Yellow plant response rating",yellow nutsedge; [2],55
same,"Nutsedge, Yellow plant response rating",yellow nutsedge; [3],65
same,"Plant response rating, Nutsedge, Yellow",yellow nutsedge; [4],0
same,Pigweed plant response rating,pigweed; [1],90
same,Pigweed plant response rating,pigweed; [2],100
same,Pigweed plant response rating,pigweed; [3],100
same,"Plant response rating, Pigweed",pigweed; [4],100
same,Ragweed plant response rating,ragweed; [1],0
same,Ragweed plant response rating,ragweed; [2],10
same,Ragweed plant response rating,ragweed; [3],25
same,"Plant response rating, Ragweed",ragweed; [4],0
same,Galium plant response rating,galium; [1],80
same,Galium plant response rating,galium; [2],98
same,Galium plant response rating,galium; [3],100
same,"Plant response rating, Galium",galium; [4],98
same,Barnyardgrass plant response rating,barnyardgrass; [1],5
same,Barnyardgrass plant response rating,barnyardgrass; [2],85
same,Barnyardgrass plant response rating,barnyardgrass; [3],100
same,"Plant response rating, Barnyardgrass",barnyardgrass; [4],10
same,Wheat plant response rating,"wheat, winter; [1]",0
same,Wheat plant response rating,"wheat, winter; [2]",0
same,Wheat plant response rating,"wheat, winter; [3]",5
same,"Plant response rating, Wheat","wheat, winter; [4]",0
same,Soybean plant response rating,soybean; [1],35
same,Soybean plant response rating,soybean; [2],85
same,Soybean plant response rating,soybean; [3],95
same,"Plant response rating, Soybean",soybean; [4],50
same,Oilseed Rape plant response rating,oilseed rape; [1],85
same,Oilseed Rape plant response rating,oilseed rape; [2],98
same,Oilseed Rape plant response rating,oilseed rape; [3],98
same,"Plant response rating, Oilseed Rape",oilseed rape; [4],98
same,Waterhemp plant response rating,waterhemp; [1],80
same,Waterhemp plant response rating,waterhemp; [2],100
same,Waterhemp plant response rating,waterhemp; [3],100
same,"Plant response rating, Waterhemp",waterhemp; [4],100
same,Lambsquarters plant response rating,lambsquarters; [1],40
same,Lambsquarters plant response rating,lambsquarters; [2],100
same,Lambsquarters plant response rating,lambsquarters; [3],100
same,"Plant response rating, Lambsquarters",lambsquarters; [4],85
same,Johnsongrass plant response rating,johnsongrass; [1],0
same,Johnsongrass plant response rating,johnsongrass; [2],35
same,Johnsongrass plant response rating,johnsongrass; [3],70
same,"Plant response rating, Johnsongrass",johnsongrass; [4],25
same,"Foxtail, Giant plant response rating",giant foxtail; [1],5
same,"Foxtail, Giant plant response rating",giant foxtail; [2],100
same,"Foxtail, Giant plant response rating",giant foxtail; [3],100
same,"Plant response rating, Foxtail, Giant",giant foxtail; [4],65
same,Blackgrass plant response rating,blackgrass; [1],5
same,Blackgrass plant response rating,blackgrass; [2],90
same,Blackgrass plant response rating,blackgrass; [3],90
same,"Plant response rating, Blackgrass",blackgrass; [4],20
same,Velvetleaf plant response rating,velvetleaf; [1],40
same,Velvetleaf plant response rating,velvetleaf; [2],100
same,Velvetleaf plant response rating,velvetleaf; [3],100
same,"Plant response rating, Velvetleaf",velvetleaf; [4],100
